The subject of data set [1] is B16-F10. Nature of the data set: Inhibition of alpha-MSH-induced melanogenesis in mouse B16F10 cells at 10 uM after 3 days by spectrophotometric analysis relative to control. To be noted: B16-F10, 72 h. It is filed as functional.
Data set [2] has as its system B16-F10. Nature of the data set: Inhibition of alpha-MSH-induced melanogenesis in mouse B16F10 cells at 1 uM after 3 days by spectrophotometric analysis relative to control. To be noted: B16-F10, 72 h. In kind it is functional.
The subject of data set [3] is B16-F10. The experiment in a line: Inhibition of alpha-MSH-induced melanogenesis in mouse B16F10 cells after 3 days by spectrophotometric analysis. To be noted: for IC50: B16-F10, 72 h. In kind it is functional, cell-based.
For data set [4], the system named is B16-F10. Nature of the data set: Ratio of kojic acid IC50 to compound IC50 for melanogenesis in mouse B16F10 cells. It is filed as functional.
Data set [5] in a line: Inhibition of tyrosinase.
Data set [6] concerns B16-F10. The experiment in a line: Cytotoxicity against mouse alpha-MSH-induced B16F10 cells at 0.31 to 20 uM after 3 days by trypan blue staining. It is filed as cell-based. To be noted: b16-f10, 72 h.
Data set [7] has as its system B16-F10. The experiment in a line: Downregulation of tyrosinase in mouse B16F10 cells assessed as tyrosinase protein expression level at 5 uM after 24 hrs by Western blot analysis relative to actin (reference value: 1.6). In kind it is functional. A general note: Immunoblotting shows a protein as a band on a membrane.
The test system of data set [8] is B16-F10. Nature of the data set: Downregulation of tyrosinase in mouse B16F10 cells assessed as tyrosinase protein expression level at 5 uM after 48 hrs by Western blot analysis relative to actin (reference value: 1.1). It is filed as functional.

Broadly, the inhibition is the percentage by which the read-out fell short of the control. Broadly, the IC50 is the concentration that gives 50% inhibition.

SMILES strings stand for the structures. Active and inactive are the calls of the source. No cut-off for these calls is given here.

As for `O=C(c1noc2c1CCCCC2)N1CCN(c2ccc(O)cc2)CC1`, the inhibition at 10 µM with B16-F10 [1] stood at 89%. Moreover, the inhibition at 1 µM in the data set on B16-F10 [2] came out at 47%. In addition, in the data set on B16-F10 [3], the inhibition entry was “Dose-dependent effect” and the concentration for half-maximal inhibition (IC50) stood at 1010 nM. Also, in the data set with B16-F10 [4], the “Ratio IC50” value was 85. In data set [5], the inhibition result was “inactive”. The Activity entry in the data set with B16-F10 [6] is on record as “Non-toxic”.

The compound `O=C(c1noc2c1CCCCC2)N1CCN(c2ccc(F)cc2)CC1` had an inhibition at 10 µM in the data set with B16-F10 [1] of less than 5%. For the same compound, the inhibition entry in data set [5] is “inactive”.

Consider `O=C(c1noc2c1CCCCC2)N1CCN(c2ccc3c(c2)OCCO3)CC1`, for which, in the data set on B16-F10 [1], the inhibition at 10 µM was less than 5%. Further, the inhibition result in data set [5] was “inactive”.

With `O=c1cc(CO)occ1O` [KOJIC ACID], the midpoint of inhibition in the data set on B16-F10 [3], the IC50, lay at 84500 nM.

`CCCc1ccc(N2CCN(C(=O)c3noc4c3CCCCC4)CC2)cc1` showed an inhibition at 10 µM in the data set with B16-F10 [1] of 56%. In the data set on B16-F10 [2], this compound gave an inhibition at 1 µM of 21%. Also, the inhibition result in data set [5] was “inactive”.

For `Cc1ccc(N2CCN(C(=O)c3noc4c3CCCCC4)CC2)cc1`, the inhibition at 10 µM in the data set with B16-F10 [1] was less than 5%. Besides, the inhibition result in data set [5] was “inactive”.

In the data set on B16-F10 [1], `COc1cccc(N2CCN(C(=O)c3noc4c3CCCCC4)CC2)c1` came in with an inhibition at 10 µM of less than 5%. Besides, in data set [5], the inhibition result was “inactive”.

`COc1ccc(N2CCCN(C(=O)c3noc4c3CCCCC4)CC2)cc1` returned an inhibition at 10 µM with B16-F10 [1] of 30%. Besides, the inhibition result in data set [5] was “inactive”.

In the data set with B16-F10 [1], `O=C(c1noc2c1CCCCC2)N1CCN(c2ncccn2)CC1` displayed an inhibition at 10 µM of 8%. Further, at 1 µM the inhibition in the data set on B16-F10 [2] was 11%. The inhibition entry in data set [5] is “inactive”.

For `O=C(c1noc2c1CCCCC2)N1CCN(c2ccc(Cl)cc2)CC1`, in the data set with B16-F10 [1], testing at 10 µM gave an inhibition of 7%. The inhibition result in data set [5] was “inactive”.

Consider `COc1ccc(N2CCN(C(=O)c3noc4c3CCCCC4)CC2)cc1`, for which, in the data set with B16-F10 [1], the inhibition at 10 µM was 92%. This compound displayed an inhibition at 1 µM in the data set with B16-F10 [2] of 42%. For the same compound, in the data set with B16-F10 [3], the inhibition result is “Dose-dependent effect” and the half-maximal inhibitory concentration (IC50) came to 670 nM. Besides, the “Ratio IC50” value in the data set with B16-F10 [4] is 126. In addition, in data set [5], the inhibition entry was “inactive”. The Activity entry with B16-F10 [6] is “Non-toxic”.

With `CCCOc1ccc(N2CCN(C(=O)c3noc4c3CCCCC4)CC2)cc1`, 10 µM produced 38% inhibition with B16-F10 [1]. In the data set with B16-F10 [2], this compound displayed an inhibition at 1 µM of 34%. Besides, in data set [5], the inhibition result is “inactive”.

As to `CCOc1ccc(N2CCN(C(=O)c3noc4c3CCCCC4)CC2)cc1`, the inhibition at 10 µM in the data set on B16-F10 [1] came out at 90%. The compound further gave an inhibition at 1 µM in the data set on B16-F10 [2] of 47%. For the same compound, in the data set on B16-F10 [3], the inhibition result is “Dose-dependent effect”. Also, the midpoint of inhibition in the data set on B16-F10 [3], the IC50, lay at 990 nM. For the same compound, the “Ratio IC50” value with B16-F10 [4] turned out to be 85. The inhibition entry in data set [5] is “inactive”. For the same compound, the “fold change (FC)” value in the data set on B16-F10 [7] was found to be 0.9; with B16-F10 [8] it was 0.7. Besides, in the data set on B16-F10 [6], the Activity result was “Non-toxic”.

For `COc1ccc(CN2CCN(C(=O)c3noc4c3CCCCC4)CC2)cc1`, the inhibition at 10 µM in the data set with B16-F10 [1] is less than 5%. Besides, the inhibition at 1 µM with B16-F10 [2] was less than 5%. For the same compound, the inhibition result in data set [5] is “inactive”.

`CCCc1ccc(N2CCCN(C(=O)c3noc4c3CCCCC4)CC2)cc1` gave an inhibition at 10 µM with B16-F10 [1] of 95%. This compound returned an inhibition at 1 µM with B16-F10 [2] of 15%. Also, the inhibition result in data set [5] was “inactive”.

The values above are taken from ChEMBL document CHEMBL2163196, “Discovery of small molecules that inhibit melanogenesis via regulation of tyrosinase expression” (Bioorg Med Chem Lett, 2012).
